Assay results from patent EP1377579B1 (Aventis Pharmaceuticals Inc., priority 2000, dated 2002).
pIC50: −log10 of the molar value. Where a name gives a salt, the structure may show the parent alone.

Legend:
[1] = test system: MDA-MB-435; experiment: In vitro proliferation assay (MTT), MDA-MB-435; assay type: cell-based, human; details: Homo sapiens, MDA-MB-435, MTT assay; value (SD, n) where given; read-out: MB-435 Breast (IC50 µM)
Description: (§1) The proliferation of tumor cells can be measured using a tetrazolium salt-based assay known as the MTT (3-[4,5-Dimethylthiazol-2-yl]-2,5-diphenyltetrazolium bromide) assay. […] For the assay, the cell lines are plated onto 96 well plates at 1000 to 2500 cells/well (depending on the properties of the individual cell lines), left to attach and recover overnight. […] After 3 days, the cells are incubated with MTT dye (3-[4,5-Dimethylthiazol-2-yl]-2,5-diphenyltetrazolium bromide, Sigma # M5655, 10 mg/ml in Hank's Buffered Saline) to estimate the amount of live cells remaining vs. concentration for the test compounds. […] The MTT and culture medium is then removed from the cultures and 200 µl of DMSO is added to solubilize the dye from the cell layer. The absorbance at 570 nm is determined for each culture using a Spectramax plate reader (Molecular Devices).
(§2) IC50s were determined from the raw data from either the MTT or SRB assays.
(§3) All of the cell lines were obtained from American Type Tissue Collection, with the ATCC accession number in parentheticals. MCF-7 and MDA-MB-231 cells were grown in improved minimum essential medium (Biofluids) without phenol red, supplemented with 5 % fetal bovine serum, 0.01 mg/ml gentamicin and 3 mM L-glutamine.

[2] = biological target: cdk2/cyclin E (Homo sapiens, UniProt P24941); experiment: Cyclin-dependent kinase assay, cdk2/cyclin E; details: CDK2 IC50, nM, GST-pRb substrate, 10 µM ATP
[3] = biological target: cdk1/cyclin B (Homo sapiens, UniProt P06493); experiment: Cyclin-dependent kinase assay, cdk1/cyclin B; details: CDK1 IC50, nM, Histone H1, 10 µM ATP
cdk1/cyclin B, sequence (P06493 whole entry): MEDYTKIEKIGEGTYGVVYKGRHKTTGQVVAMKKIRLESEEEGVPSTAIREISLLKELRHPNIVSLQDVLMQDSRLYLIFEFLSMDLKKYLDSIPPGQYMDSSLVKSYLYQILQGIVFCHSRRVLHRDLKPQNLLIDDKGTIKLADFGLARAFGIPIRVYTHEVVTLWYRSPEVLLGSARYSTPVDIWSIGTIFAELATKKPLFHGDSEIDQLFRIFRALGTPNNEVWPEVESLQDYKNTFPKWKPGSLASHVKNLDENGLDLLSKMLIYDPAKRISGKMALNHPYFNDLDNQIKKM
cdk1/cyclin B, sequence (P14635 whole entry partner): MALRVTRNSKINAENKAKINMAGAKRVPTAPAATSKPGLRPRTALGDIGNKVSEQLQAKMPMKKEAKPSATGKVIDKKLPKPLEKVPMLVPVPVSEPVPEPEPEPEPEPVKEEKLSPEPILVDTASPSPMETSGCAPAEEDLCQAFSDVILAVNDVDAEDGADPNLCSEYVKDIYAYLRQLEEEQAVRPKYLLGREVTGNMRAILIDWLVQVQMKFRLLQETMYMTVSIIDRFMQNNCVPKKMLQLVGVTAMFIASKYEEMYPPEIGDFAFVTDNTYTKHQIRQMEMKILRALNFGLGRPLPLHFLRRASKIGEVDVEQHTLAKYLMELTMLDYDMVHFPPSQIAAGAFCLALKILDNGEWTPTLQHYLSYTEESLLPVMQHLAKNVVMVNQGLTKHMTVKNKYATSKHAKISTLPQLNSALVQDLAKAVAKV

[4] = test system: PC-3; experiment: In vitro proliferation assay (MTT), PC-3; assay type: cell-based, human; details: Homo sapiens, PC-3, MTT assay; value (SD, n) where given; read-out: PC-3 Prostate (IC50 µM)
Description: as §1, §2, §3

[5] = biological target: cdk4/cyclin D1 (Homo sapiens, UniProt P11802); experiment: Cyclin-dependent kinase assay, cdk4/cyclin D1; assay type: biochemical; details: cyclin D1/cdk4; GST-pRb substrate, 10 µM ATP
cdk4/cyclin D1, sequence (P11802 whole entry): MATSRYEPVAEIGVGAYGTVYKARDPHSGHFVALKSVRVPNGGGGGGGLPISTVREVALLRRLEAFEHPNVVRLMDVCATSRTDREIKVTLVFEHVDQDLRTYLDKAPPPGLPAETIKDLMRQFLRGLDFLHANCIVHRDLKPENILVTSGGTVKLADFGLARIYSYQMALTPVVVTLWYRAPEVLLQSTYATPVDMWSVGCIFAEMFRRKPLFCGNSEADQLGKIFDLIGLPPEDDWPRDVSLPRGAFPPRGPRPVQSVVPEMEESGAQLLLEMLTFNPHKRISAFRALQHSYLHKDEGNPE
cdk4/cyclin D1, sequence (P24385 whole entry partner): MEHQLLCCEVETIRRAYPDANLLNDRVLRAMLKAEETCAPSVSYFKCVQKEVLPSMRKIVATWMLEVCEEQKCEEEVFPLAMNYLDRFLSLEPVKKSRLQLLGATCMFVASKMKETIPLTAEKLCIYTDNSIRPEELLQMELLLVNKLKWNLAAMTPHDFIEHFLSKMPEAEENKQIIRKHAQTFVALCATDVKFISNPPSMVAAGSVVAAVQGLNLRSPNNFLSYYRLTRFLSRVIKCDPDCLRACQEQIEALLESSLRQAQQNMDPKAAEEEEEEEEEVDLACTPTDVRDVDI

SMILES	IC50 [1] [µM]	IC50 [2] [nM]	IC50 [3] [nM]	IC50 [4] [µM]	pIC50 [5]
N[C@H]1CC[C@H](Nc2nc(NC3CCN(C(=O)c4ccccc4Br)CC3)c3ncn(C4CCCC4)c3n2)CC1 [compound 13, trans-1-{4-[2-(4-Amino-cyclohexylamino)-9-cyclopentyl-9H-purin-6-ylamino]-piperidin-1-yl}-1-(2-bromo-phenyl)-methanone]	2.89	364	197	2.55	6.43
N[C@H]1CC[C@H](Nc2nc(NC3CCN(C(=O)c4c(Cl)cccc4Cl)CC3)c3ncn(C4CCCC4)c3n2)CC1 [compound 14, trans-1-{4-[2-(4-Amino-cyclohexylamino)-9-cyclopentyl-9H-purin-6-ylamino]-piperidin-1-yl}-1-(2,6-dichloro-phenyl)-methanone]	2.98	514	164	2.99	7.77
N[C@H]1CC[C@H](Nc2nc(NC3CCN(C(=O)c4ccc(Cl)c(Cl)c4)CC3)c3ncn(C4CCCC4)c3n2)CC1 [compound 15, trans-1-{4-[2-(4-Amino-cyclohexylamino)-9-cyclopentyl-9H-purin-6-ylamino]-piperidin-1-yl}-1-(3,4-dichloro-phenyl)-methanone]	0.67	291	61	0.74	6.14
COc1cc(C(=O)N2CCC(Nc3nc(N[C@H]4CC[C@H](N)CC4)nc4c3ncn4C3CCCC3)CC2)cc(OC)c1OC [compound 16, trans-1-{4-[2-(4-Amino-cyclohexylamino)-9-cyclopentyl-9H-purin-6-ylamino]-piperidin-1-yl}-1-(3,4,5-trimethoxy-phenyl)-methanone]	8.52	83	43	7.91	6.43
COc1cc(OC)cc(C(=O)N2CCC(Nc3nc(N[C@H]4CC[C@H](N)CC4)nc4c3ncn4C3CCCC3)CC2)c1 [compound 17, trans-1-{4-[2-(4-Amino-cyclohexylamino)-9-cyclopentyl-9H-purin-6-ylamino]-piperidin-1-yl}-1-(3,5-dimethoxy-phenyl)-methanone]	2.22	189	89	1.82	6.33
CCCCOc1ccc(C(=O)N2CCC(Nc3nc(N[C@H]4CC[C@H](N)CC4)nc4c3ncn4C3CCCC3)CC2)cc1 [compound 18, trans-1-{4-[2-(4-Amino-cyclohexylamino)-9-cyclopentyl-9H-purin-6-ylamino]-piperidin-1-yl}-1-(4-butoxy-phenyl)-methanone]	2.76	336	506	3.43	5.83
CCCCCCCOc1ccc(C(=O)N2CCC(Nc3nc(N[C@H]4CC[C@H](N)CC4)nc4c3ncn4C3CCCC3)CC2)cc1 [compound 19, trans-1-{4-[2-(4-Amino-cyclohexylamino)-9-cyclopentyl-9H-purin-6-ylamino]-piperidin-1-yl}-1-(4-heptoxy-phenyl)-methanone]	0.58	567	62	0.96	6.05
CC(C)(C)c1ccc(C(=O)N2CCC(Nc3nc(N[C@H]4CC[C@H](N)CC4)nc4c3ncn4C3CCCC3)CC2)cc1 [compound 20, trans-1-{4-[2-(4-Amino-cyclohexylamino)-9-cyclopentyl-9H-purin-6-ylamino]-piperidin-1-yl}-1-(4-tert-butyl-phenyl)-methanone]	2.25	352	161	1.96	6.17
CCCCCc1ccc(C(=O)N2CCC(Nc3nc(N[C@H]4CC[C@H](N)CC4)nc4c3ncn4C3CCCC3)CC2)cc1 [compound 22, trans-1-{4-[2-(4-Amino-cyclohexylamino)-9-cyclopentyl-9H-purin-6-ylamino]-piperidin-1-yl}-1-(4-pentyl-phenyl)-methanone]	1.61	571	182	1.86	6.42
CCCCCCc1ccc(C(=O)N2CCC(Nc3nc(N[C@H]4CC[C@H](N)CC4)nc4c3ncn4C3CCCC3)CC2)cc1 [compound 23, trans-1-{4-[2-(4-Amino-cyclohexylamino)-9-cyclopentyl-9H-purin-6-ylamino]-piperidin-1-yl}-1-(4-hexyl-phenyl)-methanone]	1.08	596	300	2.27	6.20
N#Cc1ccc(C(=O)N2CCC(Nc3nc(N[C@H]4CC[C@H](N)CC4)nc4c3ncn4C3CCCC3)CC2)cc1 [compound 25, trans-1-{4-[2-(4-Amino-cyclohexylamino)-9-cyclopentyl-9H-purin-6-ylamino]-piperidin-1-yl}-1-(4-cyano-phenyl)-methanone]	3.76	79	56	2.72	6.20
N[C@H]1CC[C@H](Nc2nc(NC3CCN(C(=O)c4cccc([N+](=O)[O-])c4)CC3)c3ncn(C4CCCC4)c3n2)CC1 [compound 26, trans-1-{4-[2-(4-Amino-cyclohexylamino)-9-cyclopentyl-9H-purin-6-ylamino]-piperidin-1-yl}-1-(3-nitro-phenyl)-methanone]	2.18	78	31	1.67	6.25

Further lines, results first:

IC50 [1] [µM]	IC50 [2] [nM]	IC50 [3] [nM]	IC50 [4] [µM]	pIC50 [5]	SMILES
3	56	27	2.4	6.20	CCOC(=O)CC(=O)N1CCC(Nc2nc(N[C@H]3CC[C@H](N)CC3)nc3c2ncn3C2CCCC2)CC1 [compound 29, trans-3-{4-[2-(4-Amino-cyclohexylamino)-9-cyclopentyl-9H-purin-6-ylamino]-piperidin-1-yl}-3-oxo-propionic acid ethyl ester dihydrochloride]
5.46	53	24	4.84	6.72	COc1ccc(CC(=O)N2CCC(Nc3nc(N[C@H]4CC[C@H](N)CC4)nc4c3ncn4C3CCCC3)CC2)cc1OC [compound 32, trans 1-{4-[2-(4-Amino-cyclohexylamino)-9-cyclopentyl-9H-purin-6-ylamino]-piperidin-1-yl}-2-(3,4-dimethoxy-phenyl)-ethanone dihydrochloride]
1.38	55	48	0.98	6.12	C/C=C/C(=O)N1CCC(Nc2nc(N[C@H]3CC[C@H](N)CC3)nc3c2ncn3C2CCCC2)CC1 [compound 35, trans (E)-1-{4-[2-(4-Amino-cyclohexylamino)-9-cyclopentyl-9H-purin-6-ylamino]-piperidin-1-yl}-but-2-en-1-one dihydrochloride]
0.39	79	45	0.39	6.16	N[C@H]1CC[C@H](Nc2nc(NC3CCN(C(=O)CCC4CCCC4)CC3)c3ncn(C4CCCC4)c3n2)CC1 [compound 36, trans-1-{4-[2-(4-Amino-cyclohexylamino)-9-cyclopentyl-9H-purin-6-ylamino]-piperidin-1-yl}-3-cyclopentyl-propan-1-one dihydrochloride]
1.28	66	27	1.83	6.15	COc1cccc(CC(=O)N2CCC(Nc3nc(N[C@H]4CC[C@H](N)CC4)nc4c3ncn4C3CCCC3)CC2)c1 [compound 38, trans-1-{4-[2-(4-Amino-cyclohexylamino)-9-cyclopentyl-9H-purin-6-ylamino]-piperidin-1-yl}-2-(3-methoxy-phenyl)-ethanone dihydrochloride]
0.51	51	66	0.61	6.18	N[C@H]1CC[C@H](Nc2nc(NC3CCN(C(=O)C4CCCC4)CC3)c3ncn(C4CCCC4)c3n2)CC1 [compound 39, trans-1-{4-[2-(4-Amino-cyclohexylamino)-9-cyclopentyl-9H-purin-6-ylamino]-piperidin-1-yl}-1-cyclopentyl-methanone]
0.22	61	36	0.27	6.62	N[C@H]1CC[C@H](Nc2nc(NC3CCN(C(=O)C(c4ccccc4)c4ccccc4)CC3)c3ncn(C4CCCC4)c3n2)CC1 [compound 40, trans-1-{4-[2-(4-Amino-cyclohexylamino)-9-cyclopentyl-9H-purin-6-ylamino]-piperidin-1-yl}-2,2-diphenyl-ethanone dihydrochloride]
